Reference: ChEMBL document CHEMBL5154649, “Design, synthesis, and characterization of novel aminoalcohol quinolines with strong in vitro antimalarial activity” (Eur J Med Chem, 2022)

Tested on: not listed separately
Assay: Cytotoxicity against human HepG2 cells assessed as reduction in cell viability incubated for 72 hrs by MTT assay
Format: toxicity, cell-based
Conditions: not given

SMILES	IC50 at 72 h [µM]
OC[C@H](Cc1ccccc1)NC[C@@H](O)c1cc(C(F)(F)F)nc2c(C(F)(F)F)cccc12	10.9
OC[C@H](Cc1ccccc1)NC[C@H](O)c1cc(C(F)(F)F)nc2c(C(F)(F)F)cccc12 (single isomer, unassigned)	22.7
O[C@@H](CNCC1CC1)c1cc(C(F)(F)F)nc2c(C(F)(F)F)cccc12	6.6
O[C@H](CNCCN1CCN(C(c2ccccc2)c2ccccc2)CC1)c1cc(C(F)(F)F)nc2c(C(F)(F)F)cccc12	7
OC[C@@H](Cc1ccccc1)NC[C@H](O)c1cc(C(F)(F)F)nc2c(C(F)(F)F)cccc12	16.8

Tested on: Plasmodium falciparum
Assay: Selectivity index, ratio of IC50 for antiplasmodial activity against CQ-susceptible Plasmodium falciparum 3D7 to IC50 for antiplasmodial activity CQ-resistant Plasmodium falciparum W2 by HRP2-ELISA
Format: functional
Conditions: not given

SMILES	Ratio IC50
OC[C@H](Cc1ccccc1)NC[C@@H](O)c1cc(C(F)(F)F)nc2c(C(F)(F)F)cccc12	1.5
OC[C@H](Cc1ccccc1)NC[C@H](O)c1cc(C(F)(F)F)nc2c(C(F)(F)F)cccc12 (single isomer, unassigned)	1.2
O[C@@H](CNCC1CC1)c1cc(C(F)(F)F)nc2c(C(F)(F)F)cccc12	1.2
O[C@H](CNCCN1CCN(C(c2ccccc2)c2ccccc2)CC1)c1cc(C(F)(F)F)nc2c(C(F)(F)F)cccc12	1.3
OC[C@@H](Cc1ccccc1)NC[C@H](O)c1cc(C(F)(F)F)nc2c(C(F)(F)F)cccc12	1.7

Tested on: not listed separately
Assay: Selectivity index, ratio of IC50 for cytotoxicity against human HepG2 cells to IC50 for antiplasmodial activity against Plasmodium falciparum 3D7 infected in human erythrocytes by HRP2-ELISA
Format: toxicity, cell-based
Conditions: read-out: Ratio IC50

SMILES	selectivity ratio
OC[C@H](Cc1ccccc1)NC[C@@H](O)c1cc(C(F)(F)F)nc2c(C(F)(F)F)cccc12	188
OC[C@H](Cc1ccccc1)NC[C@H](O)c1cc(C(F)(F)F)nc2c(C(F)(F)F)cccc12 (single isomer, unassigned)	303
O[C@@H](CNCC1CC1)c1cc(C(F)(F)F)nc2c(C(F)(F)F)cccc12	369
O[C@H](CNCCN1CCN(C(c2ccccc2)c2ccccc2)CC1)c1cc(C(F)(F)F)nc2c(C(F)(F)F)cccc12	60
OC[C@@H](Cc1ccccc1)NC[C@H](O)c1cc(C(F)(F)F)nc2c(C(F)(F)F)cccc12	158

Tested on: Plasmodium falciparum
Assay: Antiplasmodial activity CQ-resistant Plasmodium falciparum W2 infected in human erythrocytes assessed as inhibition of parasite growth measured after 72 hrs by HRP2-ELISA
Format: functional, organism-based
Conditions: W2, Erythrocyte

SMILES	IC50 [µM]
OC[C@H](Cc1ccccc1)NC[C@@H](O)c1cc(C(F)(F)F)nc2c(C(F)(F)F)cccc12	0.0394
OC[C@H](Cc1ccccc1)NC[C@H](O)c1cc(C(F)(F)F)nc2c(C(F)(F)F)cccc12 (single isomer, unassigned)	0.0619
O[C@@H](CNCC1CC1)c1cc(C(F)(F)F)nc2c(C(F)(F)F)cccc12	0.0153
O[C@H](CNCCN1CCN(C(c2ccccc2)c2ccccc2)CC1)c1cc(C(F)(F)F)nc2c(C(F)(F)F)cccc12	0.0893
OC[C@@H](Cc1ccccc1)NC[C@H](O)c1cc(C(F)(F)F)nc2c(C(F)(F)F)cccc12	0.0638

Tested on: not listed separately
Assay: Cytotoxicity against human HFF cells assessed as reduction in cell viability incubated for 72 hrs by MTT assay
Format: toxicity, cell-based
Conditions: not given

SMILES	IC50 at 72 h [µM]
OC[C@H](Cc1ccccc1)NC[C@@H](O)c1cc(C(F)(F)F)nc2c(C(F)(F)F)cccc12	25.4
OC[C@H](Cc1ccccc1)NC[C@H](O)c1cc(C(F)(F)F)nc2c(C(F)(F)F)cccc12 (single isomer, unassigned)	53.7
O[C@@H](CNCC1CC1)c1cc(C(F)(F)F)nc2c(C(F)(F)F)cccc12	48.4
O[C@H](CNCCN1CCN(C(c2ccccc2)c2ccccc2)CC1)c1cc(C(F)(F)F)nc2c(C(F)(F)F)cccc12	13.3
OC[C@@H](Cc1ccccc1)NC[C@H](O)c1cc(C(F)(F)F)nc2c(C(F)(F)F)cccc12	37.4

Tested on: not listed separately
Assay: Cytotoxicity against Chinese hamster CHO cells assessed as reduction in cell viability incubated for 24 hrs by MTT assay
Format: toxicity, cell-based, Cricetulus griseus
Conditions: not given

SMILES	IC50 at 24 h [µM]
OC[C@H](Cc1ccccc1)NC[C@@H](O)c1cc(C(F)(F)F)nc2c(C(F)(F)F)cccc12	29.7
OC[C@H](Cc1ccccc1)NC[C@H](O)c1cc(C(F)(F)F)nc2c(C(F)(F)F)cccc12 (single isomer, unassigned)	35.2
O[C@@H](CNCC1CC1)c1cc(C(F)(F)F)nc2c(C(F)(F)F)cccc12	25.4
O[C@H](CNCCN1CCN(C(c2ccccc2)c2ccccc2)CC1)c1cc(C(F)(F)F)nc2c(C(F)(F)F)cccc12	24.8
OC[C@@H](Cc1ccccc1)NC[C@H](O)c1cc(C(F)(F)F)nc2c(C(F)(F)F)cccc12	26.6

Tested on: not listed separately
Assay: Cytotoxicity against human THP-1 cells assessed as reduction in cell viability incubated for 72 hrs by MTT assay
Format: toxicity, cell-based
Conditions: not given

SMILES	IC50 at 72 h [µM]
OC[C@H](Cc1ccccc1)NC[C@@H](O)c1cc(C(F)(F)F)nc2c(C(F)(F)F)cccc12	7.2
OC[C@H](Cc1ccccc1)NC[C@H](O)c1cc(C(F)(F)F)nc2c(C(F)(F)F)cccc12 (single isomer, unassigned)	9.2
O[C@@H](CNCC1CC1)c1cc(C(F)(F)F)nc2c(C(F)(F)F)cccc12	12.4
O[C@H](CNCCN1CCN(C(c2ccccc2)c2ccccc2)CC1)c1cc(C(F)(F)F)nc2c(C(F)(F)F)cccc12	10.8
OC[C@@H](Cc1ccccc1)NC[C@H](O)c1cc(C(F)(F)F)nc2c(C(F)(F)F)cccc12	7.8

Tested on: Plasmodium falciparum
Assay: Antiplasmodial activity against CQ-resistant Plasmodium falciparum W2 assessed as inhibition of parasite growth measured after 48 hrs by SYBR Green 1 dye based fluorescence assay
Format: functional, organism-based
Conditions: W2, 48 h

SMILES	IC50 [µM]
OC[C@H](Cc1ccccc1)NC[C@@H](O)c1cc(C(F)(F)F)nc2c(C(F)(F)F)cccc12	0.0056
OC[C@H](Cc1ccccc1)NC[C@H](O)c1cc(C(F)(F)F)nc2c(C(F)(F)F)cccc12 (single isomer, unassigned)	0.0033
O[C@@H](CNCC1CC1)c1cc(C(F)(F)F)nc2c(C(F)(F)F)cccc12	0.0168
O[C@H](CNCCN1CCN(C(c2ccccc2)c2ccccc2)CC1)c1cc(C(F)(F)F)nc2c(C(F)(F)F)cccc12	0.063
OC[C@@H](Cc1ccccc1)NC[C@H](O)c1cc(C(F)(F)F)nc2c(C(F)(F)F)cccc12	0.0543

Tested on: Plasmodium falciparum
Assay: Antiplasmodial activity against CQ-susceptible Plasmodium falciparum 3D7 assessed as inhibition of parasite growth measured after 48 hrs by SYBR Green 1 dye based fluorescence assay
Format: functional, organism-based
Conditions: 3D7, 48 h

SMILES	IC50 [µM]
OC[C@H](Cc1ccccc1)NC[C@@H](O)c1cc(C(F)(F)F)nc2c(C(F)(F)F)cccc12	0.0302
OC[C@H](Cc1ccccc1)NC[C@H](O)c1cc(C(F)(F)F)nc2c(C(F)(F)F)cccc12 (single isomer, unassigned)	0.0309
O[C@@H](CNCC1CC1)c1cc(C(F)(F)F)nc2c(C(F)(F)F)cccc12	0.023
O[C@H](CNCCN1CCN(C(c2ccccc2)c2ccccc2)CC1)c1cc(C(F)(F)F)nc2c(C(F)(F)F)cccc12	0.0757
OC[C@@H](Cc1ccccc1)NC[C@H](O)c1cc(C(F)(F)F)nc2c(C(F)(F)F)cccc12	0.0362

Tested on: not listed separately
Assay: Selectivity index, ratio of IC50 for cytotoxicity against human THP-1 cells to IC50 for antiplasmodial activity against Plasmodium falciparum 3D7 infected in human erythrocytes by HRP2-ELISA
Format: toxicity, cell-based
Conditions: read-out: Ratio IC50

SMILES	selectivity ratio
OC[C@H](Cc1ccccc1)NC[C@@H](O)c1cc(C(F)(F)F)nc2c(C(F)(F)F)cccc12	124
OC[C@H](Cc1ccccc1)NC[C@H](O)c1cc(C(F)(F)F)nc2c(C(F)(F)F)cccc12 (single isomer, unassigned)	123
O[C@@H](CNCC1CC1)c1cc(C(F)(F)F)nc2c(C(F)(F)F)cccc12	693
O[C@H](CNCCN1CCN(C(c2ccccc2)c2ccccc2)CC1)c1cc(C(F)(F)F)nc2c(C(F)(F)F)cccc12	93
OC[C@@H](Cc1ccccc1)NC[C@H](O)c1cc(C(F)(F)F)nc2c(C(F)(F)F)cccc12	73

Tested on: not listed separately
Assay: Selectivity index, ratio of IC50 for human HFF cells to IC50 for antiplasmodial activity against Plasmodium falciparum 3D7 infected in human erythrocytes by HRP2-ELISA
Format: toxicity, cell-based
Conditions: read-out: Ratio IC50

SMILES	selectivity ratio
OC[C@H](Cc1ccccc1)NC[C@@H](O)c1cc(C(F)(F)F)nc2c(C(F)(F)F)cccc12	437
OC[C@H](Cc1ccccc1)NC[C@H](O)c1cc(C(F)(F)F)nc2c(C(F)(F)F)cccc12 (single isomer, unassigned)	718
O[C@@H](CNCC1CC1)c1cc(C(F)(F)F)nc2c(C(F)(F)F)cccc12	2700
O[C@H](CNCCN1CCN(C(c2ccccc2)c2ccccc2)CC1)c1cc(C(F)(F)F)nc2c(C(F)(F)F)cccc12	114
OC[C@@H](Cc1ccccc1)NC[C@H](O)c1cc(C(F)(F)F)nc2c(C(F)(F)F)cccc12	351

Tested on: Plasmodium falciparum
Assay: Selectivity index, ratio of IC50 for antiplasmodial activity against CQ-susceptible Plasmodium falciparum 3D7 to IC50 for antiplasmodial activity against CQ-resistant Plasmodium falciparum W2 by SYBR Green 1 dye based fluorescence assay
Format: functional
Conditions: not given

SMILES	Ratio IC50
OC[C@H](Cc1ccccc1)NC[C@@H](O)c1cc(C(F)(F)F)nc2c(C(F)(F)F)cccc12	5.4
OC[C@H](Cc1ccccc1)NC[C@H](O)c1cc(C(F)(F)F)nc2c(C(F)(F)F)cccc12 (single isomer, unassigned)	9.4
O[C@@H](CNCC1CC1)c1cc(C(F)(F)F)nc2c(C(F)(F)F)cccc12	1.4
O[C@H](CNCCN1CCN(C(c2ccccc2)c2ccccc2)CC1)c1cc(C(F)(F)F)nc2c(C(F)(F)F)cccc12	1.2
OC[C@@H](Cc1ccccc1)NC[C@H](O)c1cc(C(F)(F)F)nc2c(C(F)(F)F)cccc12	0.7

Tested on: Plasmodium falciparum
Assay: Antiplasmodial activity against CQ-susceptible Plasmodium falciparum 3D7 infected in human erythrocytes assessed as inhibition of parasite growth measured after 72 hrs by HRP2-ELISA
Format: functional, organism-based
Conditions: 3D7, Erythrocyte

SMILES	IC50 [µM]
OC[C@H](Cc1ccccc1)NC[C@@H](O)c1cc(C(F)(F)F)nc2c(C(F)(F)F)cccc12	0.0581
OC[C@H](Cc1ccccc1)NC[C@H](O)c1cc(C(F)(F)F)nc2c(C(F)(F)F)cccc12 (single isomer, unassigned)	0.0748
O[C@@H](CNCC1CC1)c1cc(C(F)(F)F)nc2c(C(F)(F)F)cccc12	0.0179
O[C@H](CNCCN1CCN(C(c2ccccc2)c2ccccc2)CC1)c1cc(C(F)(F)F)nc2c(C(F)(F)F)cccc12	0.116
OC[C@@H](Cc1ccccc1)NC[C@H](O)c1cc(C(F)(F)F)nc2c(C(F)(F)F)cccc12	0.106

Tested on: not listed separately
Assay: Selectivity index, ratio of IC50 for cytotoxicity against chinese hamster CHO cells to IC50 for antiplasmodial activity against Plasmodium falciparum 3D7 infected in human erythrocytes by HRP2-ELISA
Format: toxicity, cell-based
Conditions: read-out: Ratio IC50

SMILES	selectivity ratio
OC[C@H](Cc1ccccc1)NC[C@@H](O)c1cc(C(F)(F)F)nc2c(C(F)(F)F)cccc12	511
OC[C@H](Cc1ccccc1)NC[C@H](O)c1cc(C(F)(F)F)nc2c(C(F)(F)F)cccc12 (single isomer, unassigned)	470
O[C@@H](CNCC1CC1)c1cc(C(F)(F)F)nc2c(C(F)(F)F)cccc12	1420
O[C@H](CNCCN1CCN(C(c2ccccc2)c2ccccc2)CC1)c1cc(C(F)(F)F)nc2c(C(F)(F)F)cccc12	213
OC[C@@H](Cc1ccccc1)NC[C@H](O)c1cc(C(F)(F)F)nc2c(C(F)(F)F)cccc12	250
